We go through 12 compounds from patent US8222254B2, “1, 2, 4-triazole derivatives as serotonergic modulators” (Prosarix Limited, priority 2007, dated 2012).

The target of one data set is T1, 5HT1A (Homo sapiens, UniProt P08908).
T1 construct: expressed in transfected cells; host or cells: CHO cells (Chinese hamster)
T1 sequence (P08908 1-422): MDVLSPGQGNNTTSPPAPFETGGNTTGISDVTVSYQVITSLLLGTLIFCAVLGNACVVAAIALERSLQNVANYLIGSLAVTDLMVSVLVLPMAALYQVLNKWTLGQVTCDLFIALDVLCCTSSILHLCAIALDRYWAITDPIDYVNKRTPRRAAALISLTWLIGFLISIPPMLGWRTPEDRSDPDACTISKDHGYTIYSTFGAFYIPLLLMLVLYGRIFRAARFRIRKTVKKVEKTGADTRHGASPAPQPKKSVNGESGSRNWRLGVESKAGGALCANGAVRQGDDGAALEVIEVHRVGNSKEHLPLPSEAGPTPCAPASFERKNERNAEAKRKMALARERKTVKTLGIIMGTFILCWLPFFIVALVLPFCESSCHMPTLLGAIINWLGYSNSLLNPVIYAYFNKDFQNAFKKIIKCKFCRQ
Nature of the data set: GTPγS assay for 5HT1A agonist activity. It is filed as biochemical. The settings on record: bound [35S]GTPγS relative to serotonin response. Here is the method:
Selected compounds were tested for 5HT1A agonist activity using a GTPγS assay. GTPγS binding for 5HT1A was determined according to the procedures of Adlersberg et al. J Neurosci. Res. 2000, 61(6): 674-685. Compounds were incubated for 30 minutes at 30° C. in 20 mM HEPES, pH7.4, 100 mM NaCl, 10 mM MgCl2, 1 mM DTT, 1 mM EDTA with human CHO cells Chinese hamster. Quantitation of bound [^35S] GTPγS was determined with agonist significance criteria of >50% increase in bound [^35S] GTPγS relative to serotonin response.
(In general: GTPγS is a poorly hydrolysed GTP analogue; its binding reports G protein activation.)

Data set [1] is described as follows: Metabolic stability in human liver microsomes. To be noted: pH 7.4, 1 μM compound, 0.3 mg/mL microsomes, pH7.4, 37° C. It is filed as in vitro ADME. Here is the method:
Metabolic stability of selected compounds in human liver microsomes was assessed using the procedure described by Kuhnz and Gieschen, Drug Metab. Dispos. 1998, 26: 1120-1127. Compounds (1 μM) were measured by LC/MS following 0 and 60 minute incubations with human liver microsomes (0.3 mg/mL) at pH7.4 and 37° C.

Data set [2] in a line: Metabolic stability in rat liver microsomes. It is filed as in vitro ADME. The settings on record: pH 7.4. In general terms: Liver microsomes are vesicles of endoplasmic reticulum, rich in cytochrome P450 enzymes.
The next data set addresses T2, dopamine D2L receptor (Homo sapiens, UniProt P14416).
T2 construct: expressed in transfected cells; host or cells: CHO cells
Nature of the data set: Dopamine D2 Receptor Assay, [3H]Spiperone competition binding. To be noted: selectivity 5HT1A over dopamine D2. As to the method:
The determination of binding of the ligand with dopamine D2L receptor was carried out according to the procedures described in Grandy et al. Proc. Natl. Acad. Sci. 1989, 86: 9762-9766.
For competition binding, radiolabelled 0.16 nM [3H]Spiperone was incubated for 120 minutes at 25° C. with D2L transfected human recombinant CHO cells in 50 mM Tris-HCl, pH7.4, 150 mM NaCl, 1.4 mM Ascorbic acid, 0.001% BSA and increasing concentrations of test compound. The non-specific ligand used was […] haloperidol. Significance criteria was 50% of max stimulation or inhibition.

Another data set concerns α1-adrenergic receptor. Nature of the data set: α1-Adrenergic Receptor Assay, [3H]Prazosin competition binding. The arrangement: species or system rat. To be noted: selectivity 5HT1A over α1-adrenergic. As to the method:
The determination of binding of the ligand with α1-adrenergic receptor was carried out according to the procedures described in Greengrass P and Bremner R. Eur. J. Pharmacol. 1979, 55: 323-326.
For competition binding, radiolabelled 0.25 nM [3H]Prazosin was incubated for 30 minutes at 25° C. with al transfected wisatar rat cerebral cortex cell membranes in 50 mM Tris-HCl, pH7.4, 0.1% Ascorbic acid, 10 mM Pargyline and increasing concentrations of test compound. The non specific ligand used was 0.1 uM Prazosin. Significance criteria was 50% of max stimulation or inhibition.

T2 sequence (P14416 whole entry): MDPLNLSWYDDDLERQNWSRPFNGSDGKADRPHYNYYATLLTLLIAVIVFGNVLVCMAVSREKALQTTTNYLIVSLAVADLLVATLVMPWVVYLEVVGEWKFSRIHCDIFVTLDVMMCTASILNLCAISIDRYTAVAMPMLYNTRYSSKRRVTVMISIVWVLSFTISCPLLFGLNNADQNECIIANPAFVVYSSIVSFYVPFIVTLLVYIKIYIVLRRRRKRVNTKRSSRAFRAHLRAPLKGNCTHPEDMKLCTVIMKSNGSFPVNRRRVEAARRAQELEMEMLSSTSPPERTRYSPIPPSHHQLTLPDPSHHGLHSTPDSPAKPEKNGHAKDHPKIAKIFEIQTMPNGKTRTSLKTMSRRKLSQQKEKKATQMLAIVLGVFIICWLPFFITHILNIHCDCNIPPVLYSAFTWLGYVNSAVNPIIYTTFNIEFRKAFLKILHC

With `COc1ccccc1N1CCN(CCc2n[nH]c(=O)n2C2CCCCCCC2)CC1` [Example 10, 4-Cyclooctyl-5-{2-[4-(2-methoxyphenyl)piperazino]ethyl}-2,4-dihydro-3H-1,2,4-triazol-3-one], the EC50 on 5HT1A was < 200 nM. For `COc1ccccc1N1CCN(CCc2n[nH]c(=O)n2Cc2ccccc2)CC1` [Example 13, 4-Benzyl-5-{2-[4-(2-methoxy-phenyl)-piperazin-1-yl]-ethyl}-2,4-dihydro-[1,2,4]triazol-3-one], the half-life at 1 μM in data set [1] and in data set [2] was ≥ 1 h throughout. Regarding `COc1ccccc1N1CCN(CCc2n[nH]c(=O)n2CC2CCCCC2)CC1` [Example 17, 4-(Cyclohexylmethyl)-5-{2-[4-(2-methoxyphenyl)piperazino]ethyl}-2,4-dihydro-3H-1,2,4-triazol-3-one], the half-life at 1 μM in data set [1] and in data set [2] was ≥ 1 h throughout. Turning to `COc1ccccc1N1CCN(CCc2n[nH]c(=O)n2Cc2ccc(Cl)c(Cl)c2)CC1` [Example 21, 4-(3,4-Dichloro-benzyl)-5-{2-[4-(2-methoxy-phenyl)-piperazin-1-yl]-ethyl}-2,4-dihydro-[1,2,4]triazol-3-one], on 5HT1A, the EC50 was < 200 nM. Consider `COc1ccccc1N1CCN(CCc2n[nH]c(=O)n2Cc2cccc(F)c2)CC1` [Example 26, 4-(3-Fluoro-benzyl)-5-{2-[4-(2-methoxy-phenyl)-piperazin-1-yl]-ethyl}-2,4-dihydro-[1,2,4]triazol-3-one], for which the half-life at 1 μM in data set [1] and in data set [2] was ≥ 1 h each time. For `COc1ccccc1N1CCN(CCc2n[nH]c(=O)n2C(c2ccccc2)c2ccccc2)CC1` [Example 28, 4-Benzhydryl-5-{2-[4-(2-methoxy-phenyl)-piperazin-1-yl]-ethyl}-2,4-dihydro-[1,2,4]triazol-3-one], the EC50 on 5HT1A was < 200 nM. Still for that read-out and setting: to `COc1ccccc1N1CCN(CCc2n[nH]c(=O)n2-c2ccc(Cl)c(Cl)c2)CC1` [Example 33, 4-(3,4-Dichloro-phenyl)-5-{2-[4-(2-methoxy-phenyl)-piperazin-1-yl]-ethyl}-2,4-dihydro-[1,2,4]triazol-3-one] belongs < 200 nM.

As for `COc1ccccc1N1CCN(C(C)Cc2nn(C)c(=O)n2CC2CCCCC2)CC1` (stereo not drawn) [Example 37, 4-(Cyclohexylmethyl)-5-{2-[4-(2-methoxyphenyl)piperazin-1-yl]propyl}-2-methyl-2,4-dihydro-3H-1,2,4-triazol-3-one], the “affinity for 5HT1A relative to affinity for dopamine D2 receptors” value on dopamine D2L receptor was “more than fifty times greater”. Also, the “affinity for 5HT1A relative to affinity for α1-adrenergic receptors” value in the data set on α1-adrenergic receptor was “more than fifty times greater”. With `CC(=O)Nc1cccc(N2CCN(CCc3n[nH]c(=O)n3CC3CCCCC3)CC2)c1` [Example 38, N-[3-(4-{2-[4-(Cyclohexylmethyl)-5-oxo-4,5-dihydro-1H-1,2,4-triazol-3-yl]ethyl}piperazin-1-yl)phenyl]acetamide], the “affinity for 5HT1A relative to affinity for dopamine D2 receptors” value at dopamine D2L receptor is on record as “more than fifty times greater”. The “affinity for 5HT1A relative to affinity for α1-adrenergic receptors” value in the data set on α1-adrenergic receptor was “more than fifty times greater”. Consider `CC(=O)Nc1cccc(N2CCN(CCCc3n[nH]c(=O)n3CC3CCCCC3)CC2)c1` [Example 39, N-(3-{4-[3-(4-Cyclohexylmethyl-5-oxo-4,5-dihydro-1H-[1,2,4]triazol-3-yl)-propyl]-piperazin-1-yl}-phenyl)-acetamide], for which, in the data set with α1-adrenergic receptor, the “affinity for 5HT1A relative to affinity for α1-adrenergic receptors” value was “more than fifty times greater”. On to `CC(=O)Nc1cccc(N2CCN(CCc3nn(C)c(=O)n3CC3CCCCC3)CC2)c1` [Example 41, N-[3-(4-{2-[4-(Cyclohexylmethyl)-1-methyl-5-oxo-4,5-dihydro-1H-1,2,4-triazol-3-yl]ethyl}piperazino)phenyl]acetamide], for which the concentration giving a half-maximal response (EC50) at 5HT1A was < 200 nM. Also, on dopamine D2L receptor, the “affinity for 5HT1A relative to affinity for dopamine D2 receptors” value was “more than a thousand times greater”.

As for `COc1ccccc1N1CCN(CCc2nn(C)c(=O)n2CC2CCCCC2)CC1` [Example 42, 4-(Cyclohexylmethyl)-5-{2-[4-(2-methoxyphenyl)piperazino]ethyl}-2-methyl-2,4-dihydro-3H-1,2,4-triazol-3-one], on 5HT1A, the EC50 was < 200 nM.

In general, EC50 refers to the concentration at which the effect is half-maximal. A high value points to weaker potency. In general, half-life refers to how long it takes for the measured level to halve. A higher half-life goes with slow loss.
